Laboratory results: publication PMC11609934, “Exploration and characterization of the antimalarial activity of cyclopropyl carboxamides that target the mitochondrial protein, cytochrome b” (European Journal of Medicinal Chemistry, 2024)
pEC50: −log10 of the molar value. Where two headings read alike, the source gives them in different places.

Key:
[1] = eLogD (shake-flask, pH 7.4); format: physicochemical; settings: 1-octanol/phosphate buffered saline (1:1, v/v), Shake-flask method
Procedure: eLogD. The LogD (pH 7.4) assay was performed using a miniaturized shake flask method. A solution of a pre-saturated mixture of 1-octanol and phosphate buffered saline (PBS) (1:1, v/v) and the test compound (75 μM) was incubated at 25 °C with constant shaking (850 rpm) for 2 h. After incubation the organic and aqueous phases were separated, and samples of each phase transferred to plate for dilution. The organic phase was diluted to 1000-fold and the aqueous phase was diluted 20-fold. The samples were quantitated using LC-MS/MS. The experiment was carried out in duplicate. Propranolol, amitriptyline, and midazolam were used as reference standards.

[2] = test system: Pf Dd2 strain with an I22L mutation in the Qi site cyt b; test: Cyt b resistant asexual stage assay, Dd2 cyt b(I22L); format: cell-based; settings: Plasmodium falciparum, DD2, 72 h, read-out: Pf cyt b mutant strains EC50 (SD) Dd2 cyt b(I22L)
Procedure: (§1) To determine whether the cyclopropyl carboxamide series specifically targets the Qo site of cyt b, representative analogs W466 (1), W499 (2), and the focal compound here-on referred to as WJM280 (108) were evaluated against drug-resistant parasite strains with mutations in the Qo or Qi site of cyt b. […] These mutations are mapped to a model of cyt b in Fig. 3.
(§2) Cyt b Resistant and ScDHODH Asexual Stage Assays. These assays were conducted as previously described. Briefly, asexual parasite strains indicated in Table 12 were incubated with compound in a dose response format for 72 h. Parasitemia was determined using SYBR-green fluorescence measured by flow cytometry (Thermo Fisher Attune). EC50 values were determined as described for the LDH assay.

Rat hepatocyte stability = format: in vitro ADME; settings: pooled rat hepatocytes
Procedure: Rat Hepatocyte Stability. A solution of the test compound in Krebs-Henseliet buffer solution (1 μM) was incubated in pooled rat hepatocytes (1 × 10^6 cells/mL) for 0, 15,30,45, 60, 75 and 90 min at 37 °C (5 % CO2, 95 % relative humidity). The reaction was terminated with the addition of ice-cold acetonitrile containing system suitability standard at designated time points. […] The experiment was carried out in duplicate. Diltiazem, 7-ethoxy coumarin, propranolol, and midazolam were used as reference standards.

[3] = test system: Pf Dd2 expressing ScDHODH; test: ScDHODH asexual stage assay; format: cell-based; settings: Plasmodium falciparum, DD2, 72 h, read-out: Dd2 ScDHODH EC50 (SD)
Procedure: DHODH is essential for the function of the mitochondria ETC and pyrimidine biosynthesis. Compounds that inhibit cyt b typically have reduced activity against parasite strains with increased DHODH levels. To support evidence that the cyclopropyl carboxamide series impacts the mitochondrial ETC, selected analogs were evaluated against both the SB1-A6 strain that has a 2-fold amplification and a C276F SNP in PfDHODH [24] and a Dd2 strain that expresses Saccharomyces cerevisiae DHODH (ScDHODH). ScDHODH has low sequence homology to PfDHODH and is ubiquinone-independent in that it uses fumarate instead of mitochondrial coenzyme Q as an electron acceptor and therefore compounds that inhibit the Plasmodium mitochondrial ETC have reduced activity against the ScDHODH parasite strain.
as §2

[4] = test system: P. falciparum 3D7 parasites; test: P. falciparum 3D7 asexual stage LDH assay (72 h); format: cell-based, Plasmodium falciparum; settings: Plasmodium falciparum, read-out: Pf 3D7 EC50 (SD)
Outline: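 Asexual P. falciparum 3D7 parasites were grown for 72 h over a 10-point, 3-fold series starting at 1 μM in 0.1% DMSO, with 100 nM chloroquine as negative growth control. After freeze-thaw, parasite LDH was read at 650 nm, and EC50 came from a variable-slope sigmoidal fit.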

[5] = test system: Pf 3D7 3-oxadiazole quinolone resistant strain with a V259L mutation in the Qo site of cyt b; test: Cyt b resistant asexual stage assay, 3D7 cyt b(V259L); format: cell-based, Plasmodium falciparum; settings: for pEC50: Plasmodium falciparum, 3D7, 72 h, read-out: Pf cyt b mutant strains EC50 (SD) 3D7 cyt b(V259L)
Procedure: as §1, §2

[6] = Human liver microsome stability; format: in vitro ADME; settings: pooled human liver microsomes
Procedure: Human Liver Microsome Stability. A solution of the test compounds in phosphate buffer solution (1 μM) was incubated in pooled human liver microsomes (0.5 mg/mL) for 0, 5, 20, 30, 45 and 60 min at 37 °C in the presence and absence of NADPH regeneration system. The reaction was terminated with the addition of ice-cold acetonitrile containing system suitability standard at designated time points. […] The experiment was carried out in duplicate. Verapamil, diltiazem, phenacetin, and imipramine were used as reference standards.

SMILES | logD at 2 h [1] | pEC50 [2] | hepatocyte CLint at 1 μM (Rat hepatocyte stability) | pEC50 [3] | pEC50 ([4]; 3D7 / DSM 265, parent 3D7 for resistant populations, LDH assay, 3 experiments (SYBR-green for DSM265)) | fold reduction in activity against cyt b V259L Qo site mutant compared to the Dd2 parent strain [5] | pEC50 [5] | microsomal CLint at 1 h, 1 µM [6] | pEC50 ([4]; 3D7, 72 h, LDH activity of P. falciparum 3D7 parasites over 72 h, means and SDs, three or more experiments)
O=C(NC1CC1)c1ccc(CN(Cc2ccc(Cl)cc2Cl)C2CC2)cc1 [W499 (2)] | 4.1 | 7.31 | > 92 µL/min/1e6 cells | < 5.00 | 6.77 | 1.5 fold | 6.78 | 177 µL/min/mg | 
CCCN(Cc1ccc(C(=O)NC2CC2)cc1)Cc1ccc(C(F)(F)F)cc1 [WJM280 (108), N-Cyclopropyl-4-((propyl(4-(trifluoromethyl)benzyl)amino)methyl)benzamide] | 5.2 | 8.70 | > 92 µL/min/1e6 cells | < 5.00 |  | 2 fold | 7.64 | 62 µL/min/mg | 7.40
